In patent publication US20220098525A1, “LAUNDRY DETERGENT” (Conopco, Inc., d/b/a UNILEVER, priority 2019, published 2022):
Where two headings read alike, the source gives them in different places.

Experiments:
Assay type in all cases: physicochemical
[1] = hydrolysis in the region of pH 4 to 10
[2] = dissolution of dye in water for pKa measurement; conditions: approximately 2×10^−5 mol L^−1 in water, conditions analogous to the reference dye
Method: (§1) pKa values (acid dissociation constant) were measured for the reference dye by dissolving approximately 2×10^−5 mol L^−1 of the dye in water then varying the pH from 9.6 to 1.9 and observing the changes in the UV-VIS spectrum at 570 nm. The pKa values are higher than expected for a free —COOH group which would be 3 to 4 and is attributed to the effect of the alkyl chains.

[3] = pKa measured by pH variation and UV-VIS spectrum at 570 nm; conditions: water, pH 4, approximately 2×10^−5 mol L^−1 dye in water, pH varied 9.6 to 1.9, UV-VIS at 570 nm; dual pKa fit for the 2 -COOH groups
Method: as §1

C=COCCOCCN(CCOCCO)c1ccc(/N=N/c2sc(C#N)c(C)c2C#N)c(C)c1 [inventive]
hydrolysis [1]: not observed
hydrolysis ([1]; listed as inventive compound): resistant to hydrolysis
dissolution in water [2]: did not dissolve

CCCCC/C=C/CC(CC(=O)OCCOCCN(CCOCCOC(=O)CC(C/C=C/CCCCC)C(=O)O)c1ccc(/N=N/c2sc(C#N)c(C)c2C#N)c(C)c1)C(=O)O (centres unmarked) [reference, reference compound]
pKa [3]: 7.5
hydrolysis [1]: observed
